# Data: article PMC9791658 (Journal of Medicinal Chemistry, 2022)
# What was measured:
# 14-3-3ζ/ERα_pT594 = 14-3-3ζ/ERα_pT594 (Homo sapiens, UniProt P03372+P63104); assay: Fluorescence polarization; assay type: binding; conditions: FP assay
# 14-3-3ζ/GR_pT524 [1] = target: 14-3-3ζ/GR_pT524 (Homo sapiens, UniProt P04150+P63104); assay: Fluorescence polarization; assay type: binding; conditions: for 14-3-3/GR PPI stabilization activity (in words): FP assay
# Caco-2 cells = assay: Permeability across Caco-2 cell monolayers; assay type: in vitro ADME; conditions: for permeability classification: Caco-2; for increase of permeability vs 1: Caco-2 Papp(A to B) relative to compound 1
# 14-3-3ζ/GR_pT524 [2] = target: T1, 14-3-3ζ/GR_pT524 (Homo sapiens, UniProt P63104); assay: SPR assay of GR_pT524 with 14-3-3ζ in the absence and presence of FC-A; assay type: binding; conditions: FC-A 1 mM
# T1 sequence (P63104 1-245): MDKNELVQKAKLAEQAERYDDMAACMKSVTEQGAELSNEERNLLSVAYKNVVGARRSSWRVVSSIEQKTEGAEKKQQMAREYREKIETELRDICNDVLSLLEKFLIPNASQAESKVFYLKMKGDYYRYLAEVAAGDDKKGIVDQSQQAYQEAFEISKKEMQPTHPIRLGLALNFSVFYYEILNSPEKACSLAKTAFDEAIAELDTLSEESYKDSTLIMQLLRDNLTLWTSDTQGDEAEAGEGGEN
14-3-3/ERα PPI stabilization activity (in words) (14-3-3ζ/ERα_pT594),14-3-3/GR PPI stabilization activity (in words) (14-3-3ζ/GR_pT524 [1]),Compound,also measured
inactive,–,"O=C(O)c1cc(N2C(=O)C(O)=C(c3ccccc3)C2c2ccc([N+](=O)[O-])cc2)ccc1O (centres unmarked) [Compound 28, 2-Hydroxy-5-(3-hydroxy-5-(4-nitrophenyl)-2-oxo-4-phenyl-2,5-dihydro-1H-pyrrol-1-yl) benzoic Acid]",–
no 14-3-3/ERα PPI stabilization activity,–,"O=C(O)c1cc(N2C(=O)C(O)=C(c3ccccc3)C2c2ccc([N+](=O)[O-])cc2)ccc1O (single isomer, unassigned; (-)) [(−)-28, 2-Hydroxy-5-(3-hydroxy-5-(4-nitrophenyl)-2-oxo-4-phenyl-2,5-dihydro-1H-pyrrol-1-yl) benzoic Acid]",–
abolished activity,abolished activity,"O=C(C1=C(O)C(=O)N(c2ccc(O)c(C(=O)O)c2)C1c1ccc([N+](=O)[O-])cc1)c1cccc(OC(F)F)c1 (centres unmarked) [Compound 19, 5-(3-(3-(Difluoromethoxy)benzoyl)-4-hydroxy-2-(4-nitrophenyl)-5-oxo-2,5-dihydro-1H-pyrrol-1-yl)-2-hydroxybenzoic Acid]",–
–,only marginal activity,"O=C(C1=C(O)C(=O)N(c2ccccc2O)C1c1ccc([N+](=O)[O-])cc1)c1ccccc1 (centres unmarked) [Compound 23, 4-Benzoyl-3-hydroxy-1-(2-hydroxyphenyl)-5-(4-nitrophenyl)-1,5-dihydro-2H-pyrrol-2-one]",permeability classification (Caco-2 cells): medium permeability; increase of permeability vs 1 (Caco-2 cells): 5 fold
completely inactive,–,"O=C(C1=C(O)C(=O)N(c2ccc(O)c(C(=O)O)c2)[C@H]1c1ccc([N+](=O)[O-])cc1)c1ccccc1 [(S)-1, 5-(3-Benzoyl-4-hydroxy-2-(4-nitrophenyl)-5-oxo-2,5-dihydro-1H-pyrrol-1-yl)-2-hydroxybenzoic Acid]",–
–,does not stabilize,"C=CC(C)(C)OC[C@H]1O[C@H](O[C@@H]2C3=C([C@H](C)COC(C)=O)C[C@H](O)[C@]3(C)/C=C3/[C@@H](COC)CC[C@H]3[C@@H](C)[C@H]2O)[C@H](O)[C@@H](O)[C@@H]1O [FC-A, Fusicoccin A, reference compound]",effect on the interaction between GR_pT524 and 14-3-3ζ (SPR) (14-3-3ζ/GR_pT524 [2]): does not stabilize
loss of measurable activity,loss of measurable activity,"Nc1ccc(C2C(C(=O)c3ccccc3)=C(O)C(=O)N2c2ccc(O)c(C(=O)O)c2)cc1 (centres unmarked) [Compound 17, 5-(2-(4-Aminophenyl)-3-benzoyl-4-hydroxy-5-oxo-2,5-dihydro-1H-pyrrol-1-yl)-2-hydroxybenzoic Acid]",–
–,only marginal activity,"O=C(C1=C(O)C(=O)N(c2ccc(O)cc2)C1c1ccc([N+](=O)[O-])cc1)c1ccccc1 (centres unmarked) [Compound 22, 4-Benzoyl-3-hydroxy-1-(4-hydroxyphenyl)-5-(4-nitrophenyl)-1,5-dihydro-2H-pyrrol-2-one]",permeability classification (Caco-2 cells): medium permeability; increase of permeability vs 1 (Caco-2 cells): 3 fold
loss of measurable activity,loss of measurable activity,"O=C(C1=C(O)C(=O)N(c2ccc(O)c(C(=O)O)c2)C1c1ccccc1)c1ccccc1 (centres unmarked) [Compound 21, 5-(3-Benzoyl-4-hydroxy-5-oxo-2-phenyl-2,5-dihydro-1H-pyrrol-1-yl)-2-hydroxybenzoic Acid]",–
no 14-3-3/ERα PPI stabilization activity,–,"O=C(O)c1cc(N2C(=O)C(O)=C(c3ccccc3)C2c2ccc([N+](=O)[O-])cc2)ccc1O (single isomer, unassigned; (+)) [(+)-28, 2-Hydroxy-5-(3-hydroxy-5-(4-nitrophenyl)-2-oxo-4-phenyl-2,5-dihydro-1H-pyrrol-1-yl) benzoic Acid]",–
–,–,"O=C(C1=C(O)C(=O)N(c2ccc(O)c(C(=O)O)c2)C1c1ccc([N+](=O)[O-])cc1)c1ccccc1 (centres unmarked) [Compound 1, 5-(3-Benzoyl-4-hydroxy-2-(4-nitrophenyl)-5-oxo-2,5-dihydro-1H-pyrrol-1-yl)-2-hydroxybenzoic Acid]",decrease in potency for 14-3-3/GR compared to 14-3-3/ERα (14-3-3ζ/GR_pT524 [1]; from EC1.2 values): approximately 2 fold; permeability classification (Caco-2 cells): low permeability
